{"source": "patent US9902703B2", "about": "“Somatostatin modulators and uses thereof” (Crinetics Pharmaceuticals, Inc., priority 2015, dated 2018)", "data": [{"target": "T1, human somatostatin receptor subtype 2 (Homo sapiens, UniProt P30874)", "T1 construct": "expressed in transfected cells; host or cells: CHO (Chinese hamster ovary) cells, G-418 selected", "T1 sequence (P30874 whole entry)": "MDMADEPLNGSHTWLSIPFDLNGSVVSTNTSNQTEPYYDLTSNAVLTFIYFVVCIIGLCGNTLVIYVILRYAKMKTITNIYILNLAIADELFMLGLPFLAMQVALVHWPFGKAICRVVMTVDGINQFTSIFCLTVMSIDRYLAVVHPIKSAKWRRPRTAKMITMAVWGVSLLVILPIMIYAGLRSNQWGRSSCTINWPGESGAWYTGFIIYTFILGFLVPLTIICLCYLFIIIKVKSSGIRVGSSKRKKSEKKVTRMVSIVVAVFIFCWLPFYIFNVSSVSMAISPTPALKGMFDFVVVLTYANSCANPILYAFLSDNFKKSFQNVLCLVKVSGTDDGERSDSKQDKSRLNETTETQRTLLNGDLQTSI", "test": "cAMP assay (functional assay for SSTR2 agonists)", "assay_type": "cell-based", "conditions": "CHO cells expressing human SSTR2; intracellular cAMP with forskolin, HTRF; read-out: SSTR2a EC50", "description": "Functional Assay for SSTR2 Agonists\nGeneral overview: All five SSTR subtypes are Gi coupled G-protein coupled receptors (GPCRs) that lead to decreases in intracellular cyclic AMP (cAMP) when activated by an agonist. Therefore, measurement of intracellular cAMP levels can be used to assess whether compounds of the invention are agonists of SSTR subtypes (John Kelly, Troy Stevens, W. Joseph Thompson, and Roland Seifert, Current Protocols in Pharmacology, 2005, 2.2.1-2.2). One example of an intracellular cAMP assay is described below.\nOne day prior to the assay, 40,000 Chinese hamster ovary (CHO) cells expressing the human somatostatin receptor subtype 2 are plated in each well of a 96-well tissue culture plate in DM-MEM growth media (Gibco) with the following additives: 10% fetal bovine serum (Gibco), 100 U/mL penicillin (Gibco), 100 ug/mL streptomycin (Gibco), 10 mM HEPES (Gibco), 1.2 mM sodium hydroxide, 0.5 mg/mL G-418 (Gibco)). The cells are cultured overnight at 37° C., 5% CO2 and 95% humidity. On the day of the assay, the media is aspirated and the cells are washed with 1× Dulbecco's phosphate buffered saline (Gibco). Next, 5 μL of assay buffer (1× Earle's Balanced Salt Solution (Gibco), 5 mM MgCl2, 10 mM HEPES, 0.1% bovine serum albumin, 0.2 mM 3-Isobutyl-1-methylxanthine (IBMX, Biomol Research Labs)) and forskolin is added. Various dilutions of the compounds of the invention are prepared in assay buffer and 5 μL of the dilutions are added to the cultured cells and incubated for 15 minutes at 37° C. […] 10 μL of lysis buffer (HRTF cAMP kit, Cisbio) containing cAMP detection and visualization antibodies are added and the assay is allowed incubate for 1-24 hours at room temperature. The intracellular cAMP concentrations are then measured using a commercially available detection kit (for example, the cAMP HTRF kit, Cisbio). The measured intracellular cAMP concentrations are plotted vs. the concentration of the compounds of the invention and the EC50 of the compounds are calculated using standard methods.", "units": {"EC50": "nM"}, "values": [{"smiles": "Cc1cc(F)cc(N2C=Nc3cc(C)c(-c4cccc(O)c4)cc3C2C(=O)N(C)C[C@@H]2CCCN2)c1", "note": "(stereo partly drawn) [Compound 1-25, 3-(3-fluoro-5-methylphenyl)-6-(3-hydroxyphenyl)-N,7-dimethyl-N-[(2S)-pyrrolidin-2-ylmethyl]-3,4-dihydroquinazoline-4-carboxamide]", "EC50": "< 100"}, {"smiles": "Cc1cc(F)cc(N2C=Nc3cc(C)c(-c4cc(O)ccc4Cl)cc3C2C(=O)N(C)C[C@@H]2CCCN2)c1", "note": "(stereo partly drawn) [Compound 1-26, 6-(2-chloro-5-hydroxyphenyl)-3-(3-fluoro-5-methylphenyl)-N,7-dimethyl-N-[(2S)-pyrrolidin-2-ylmethyl]-3,4-dihydroquinazoline-4-carboxamide]", "EC50": "< 100"}, {"smiles": "CC1=Nc2ccc(-c3cc(O)ccc3Cl)cc2C(C(=O)N(C)C[C@@H]2CCCN2)N1c1cc(C)cc(Cl)c1", "note": "(stereo partly drawn) [Compound 1-27, 6-(2-chloro-5-hydroxyphenyl)-3-(3-chloro-5-methylphenyl)-N,2-dimethyl-N-[(2S)-pyrrolidin-2-ylmethyl]-3,4-dihydroquinazoline-4-carboxamide]", "EC50": "< 100"}, {"smiles": "CC1=Nc2ccc(-c3cc(O)ccc3Cl)cc2C(C(=O)NC[C@@H]2CCCN2)N1c1cc(C)cc(Cl)c1", "note": "(stereo partly drawn) [Compound 1-28, 6-(2-chloro-5-hydroxyphenyl)-3-(3-chloro-5-methylphenyl)-2-methyl-N-[(2S)-pyrrolidin-2-ylmethyl]-3,4-dihydroquinazoline-4-carboxamide]", "EC50": "< 100"}, {"smiles": "Cc1cc(Cl)cc(N2C=Nc3ccc(-c4cccc(O)c4Cl)cc3C2C(=O)N(C)C[C@@H]2CCCN2)c1", "note": "(stereo partly drawn) [Compound 1-29, 6-(2-chloro-3-hydroxyphenyl)-3-(3-chloro-5-methylphenyl)-N-methyl-N-[(2S)-pyrrolidin-2-ylmethyl]-3,4-dihydroquinazoline-4-carboxamide]", "EC50": "< 100"}, {"smiles": "Cc1cc(Cl)cc(N2C=Nc3ccc(-c4cc(O)ccc4Cl)cc3C2C(=O)N(C)C[C@@H]2CCCN2)c1", "note": "(stereo partly drawn) [Compound 1-30, 6-(2-chloro-5-hydroxyphenyl)-3-(3-chloro-5-methylphenyl)-N-methyl-N-[(2S)-pyrrolidin-2-ylmethyl]-3,4-dihydroquinazoline-4-carboxamide]", "EC50": "< 100"}, {"smiles": "CCN(C[C@@H]1CCCN1)C(=O)C1c2cc(-c3cccc(O)c3)c(C)cc2N=CN1c1cc(C)cc(Cl)c1", "note": "(stereo partly drawn) [Compound 1-31, 3-(3-chloro-5-methylphenyl)-N-ethyl-6-(3-hydroxyphenyl)-7-methyl-N-[(2S)-pyrrolidin-2-ylmethyl]-3,4-dihydroquinazoline-4-carboxamide]", "EC50": "< 100"}, {"smiles": "Cc1cc(Cl)cc(N2C=Nc3cc(C)c(-c4ccccc4)cc3C2C(=O)N(C)C[C@@H]2CCCN2)c1", "note": "(stereo partly drawn) [Compound 1-32, 3-(3-chloro-5-methylphenyl)-N,7-dimethyl-6-phenyl-N-[(2S)-pyrrolidin-2-ylmethyl]-3,4-dihydroquinazoline-4-carboxamide]", "EC50": "< 100"}, {"smiles": "Cc1cc(Cl)cc(N2C=Nc3cc(C)c(-c4cccc(C#N)c4)cc3C2C(=O)N(C)C[C@@H]2CCCN2)c1", "note": "(stereo partly drawn) [Compound 1-33, 3-(3-chloro-5-methylphenyl)-6-(3-cyanophenyl)-N,7-dimethyl-N-[(2S)-pyrrolidin-2-ylmethyl]-3,4-dihydroquinazoline-4-carboxamide]", "EC50": "< 100"}, {"smiles": "Cc1cc(Cl)cc(N2C=Nc3cc(C)c(-c4cc(F)ccc4Cl)cc3C2C(=O)N(C)C[C@@H]2CCCN2)c1", "note": "(stereo partly drawn) [Compound 1-35, 6-(2-chloro-5-fluorophenyl)-3-(3-chloro-5-methylphenyl)-N,7-dimethyl-N-[(2S)-pyrrolidin-2-ylmethyl]-3,4-dihydroquinazoline-4-carboxamide]", "EC50": "< 100"}, {"smiles": "Cc1cc(Cl)cc(N2C=Nc3cc(C)c(-c4ccccc4Cl)cc3C2C(=O)N(C)C[C@@H]2CCCN2)c1", "note": "(stereo partly drawn) [Compound 1-36, 3-(3-chloro-5-methylphenyl)-6-(2-chlorophenyl)-N,7-dimethyl-N-[(2S)-pyrrolidin-2-ylmethyl]-3,4-dihydroquinazoline-4-carboxamide]", "EC50": "< 100"}, {"smiles": "Cc1cc(Cl)cc(N2C=Nc3cc(C)c(-c4cc(C#N)ccc4Cl)cc3C2C(=O)N(C)C[C@@H]2CCCN2)c1", "note": "(stereo partly drawn) [Compound 1-37, 6-(2-chloro-5-cyanophenyl)-3-(3-chloro-5-methylphenyl)-N,7-dimethyl-N-[(2S)-pyrrolidin-2-ylmethyl]-3,4-dihydroquinazoline-4-carboxamide]", "EC50": "< 100"}, {"smiles": "Cc1cc(Cl)cc(N2C=Nc3cc(C)c(-c4cc(F)cc(C#N)c4)cc3C2C(=O)N(C)C[C@@H]2CCCN2)c1", "note": "(stereo partly drawn) [Compound 1-38, 3-(3-chloro-5-methylphenyl)-6-(3-cyano-5-fluorophenyl)-N,7-dimethyl-N-[(2S)-pyrrolidin-2-ylmethyl]-3,4-dihydroquinazoline-4-carboxamide]", "EC50": "< 100"}, {"smiles": "Cc1cc(C#N)cc(-c2cc3c(cc2C)N=CN(c2cc(C)cc(Cl)c2)C3C(=O)N(C)C[C@@H]2CCCN2)c1", "note": "(stereo partly drawn) [Compound 1-39, 3-(3-chloro-5-methylphenyl)-6-(3-cyano-5-methylphenyl)-N,7-dimethyl-N-[(2S)-pyrrolidin-2-ylmethyl]-3,4-dihydroquinazoline-4-carboxamide]", "EC50": "< 100"}, {"smiles": "Cc1cc(Cl)cc(N2C=Nc3cc(C)c(-c4cc(F)cc(F)c4)cc3C2C(=O)N(C)C[C@@H]2CCCN2)c1", "note": "(stereo partly drawn) [Compound 1-40, 3-(3-chloro-5-methylphenyl)-6-(3,5-difluorophenyl)-N,7-dimethyl-N-[(2S)-pyrrolidin-2-ylmethyl]-3,4-dihydroquinazoline-4-carboxamide]", "EC50": "< 100"}, {"smiles": "Cc1cc(Cl)cc(N2C=Nc3cc(C)c(-c4cccc(C#N)c4F)cc3C2C(=O)N(C)C[C@@H]2CCCN2)c1", "note": "(stereo partly drawn) [Compound 1-41, 3-(3-chloro-5-methylphenyl)-6-(3-cyano-2-fluorophenyl)-N,7-dimethyl-N-[(2S)-pyrrolidin-2-ylmethyl]-3,4-dihydroquinazoline-4-carboxamide]", "EC50": "< 100"}, {"smiles": "Cc1cc(Cl)cc(N2C=Nc3cc(C)c(-c4cc(C#N)cc(C(F)(F)F)c4)cc3C2C(=O)N(C)C[C@@H]2CCCN2)c1", "note": "(stereo partly drawn) [Compound 1-42, 3-(3-chloro-5-methylphenyl)-6-[3-cyano-5-(trifluoromethyl)phenyl]-N,7-dimethyl-N-[(2S)-pyrrolidin-2-ylmethyl]-3,4-dihydroquinazoline-4-carboxamide]", "EC50": "< 100"}, {"smiles": "Cc1cc(Cl)cc(N2C=Nc3cc(C)c(-c4cccc(C(F)(F)F)c4)cc3C2C(=O)N(C)C[C@@H]2CCCN2)c1", "note": "(stereo partly drawn) [Compound 1-43, 3-(3-chloro-5-methylphenyl)-N,7-dimethyl-N-[(2S)-pyrrolidin-2-ylmethyl]-6-[3-(trifluoromethyl)phenyl]-3,4-dihydroquinazoline-4-carboxamide]", "EC50": "< 100"}, {"smiles": "Cc1cc(Cl)cc(N2C=Nc3cc(C)c(-c4cccc(C#N)c4C)cc3C2C(=O)N(C)C[C@@H]2CCCN2)c1", "note": "(stereo partly drawn) [Compound 1-44, 3-(3-chloro-5-methylphenyl)-6-(3-cyano-2-methylphenyl)-N,7-dimethyl-N-[(2S)-pyrrolidin-2-ylmethyl]-3,4-dihydroquinazoline-4-carboxamide]", "EC50": "< 100"}, {"smiles": "Cc1cc(Cl)cc(N2C=Nc3ccc(-c4cccc(O)c4)cc3C2C(=O)N(C)C[C@@H]2CCCN2)c1", "note": "(stereo partly drawn) [Compound 1-45, 3-(3-chloro-5-methylphenyl)-6-(3-hydroxyphenyl)-N-methyl-N-[(2S)-pyrrolidin-2-ylmethyl]-3,4-dihydroquinazoline-4-carboxamide]", "EC50": "< 100"}, {"smiles": "Cc1cc(Cl)cc(N2C=Nc3cc(C)c(-c4cccc(S(C)(=O)=O)c4)cc3C2C(=O)N(C)C[C@@H]2CCCN2)c1", "note": "(stereo partly drawn) [Compound 1-46, 3-(3-chloro-5-methylphenyl)-6-(3-methanesulfonylphenyl)-N,7-dimethyl-N-[(2S)-pyrrolidin-2-ylmethyl]-3,4-dihydroquinazoline-4-carboxamide]", "EC50": "100 to 1000"}, {"smiles": "Cc1cc(Cl)cc(N2C=Nc3cc(C)c(-c4cccc(-c5nnn[nH]5)c4)cc3C2C(=O)N(C)C[C@@H]2CCCN2)c1", "note": "(stereo partly drawn) [Compound 1-47, 3-(3-chloro-5-methylphenyl)-N,7-dimethyl-N-[(2S)-pyrrolidin-2-ylmethyl]-6-[3-(1H-1,2,3,4-tetrazol-5-yl)phenyl]-3,4-dihydroquinazoline-4-carboxamide]", "EC50": "< 100"}, {"smiles": "Cc1cc(Cl)cc(N2C=Nc3cc(C)c(-c4cc(O)cc(C#N)c4)cc3C2C(=O)N(C)C[C@@H]2CCCN2)c1", "note": "(stereo partly drawn) [Compound 1-48, 3-(3-chloro-5-methylphenyl)-6-(3-cyano-5-hydroxyphenyl)-N,7-dimethyl-N-[(2S)-pyrrolidin-2-ylmethyl]-3,4-dihydroquinazoline-4-carboxamide]", "EC50": "< 100"}, {"smiles": "CCOC(=O)Cc1cccc(-c2cc3c(cc2C)N=CN(c2cc(C)cc(Cl)c2)C3C(=O)N(C)C[C@@H]2CCCN2)c1", "note": "(stereo partly drawn) [Compound 1-49, ethyl 2-{3-[3-(3-chloro-5-methylphenyl)-7-methyl-4-{methyl[(2S)-pyrrolidin-2-ylmethyl]carbamoyl}-3,4-dihydroquinazolin-6-yl]phenyl}acetate]", "EC50": "100 to 1000"}]}]}
